From patent publication US10030047B2 (Hoffmann-La Roche Inc., priority 2015, dated 2018)

system: A. baumannii strain ATCC17978; assay: 50% growth inhibitory concentration (IC50) determination, Iso-Sensitest broth; type: cell-based; settings: Acinetobacter baumannii; A. baumannii ATCC17978; Iso-Sensitest medium; OD 600 nm over 16 h; read-out: IC50 ATCC17978
Experimental: The in vitro antimicrobial activity of the compounds was alternatively determined according to the following procedure:
The assay used a 10-points Iso-Sensitest broth medium to measure quantitatively the in vitro activity of the compounds against A. baumannii ATCC 17978.
Stock compounds in DMSO were serially twofold diluted (e.g. range from 50 to 0.097 μM final concentration) in 384 wells microtiter plates and inoculated with 49 μl the bacterial suspension in Iso-Sensitest medium to have a final cell concentration of ˜5×10^(5) CFU/ml in a final volume/well of 50 ul/well. Microtiter plates were incubated at 35±2° C.
Bacterial cell growth was determined with the measurement of optical density at λ=600 nm each 20 minutes over a time course of 16 h.
Growth inhibition was calculated during the logarithmic growth of the bacterial cells with determination of the concentration inhibiting 50% (IC50) and 90% (IC90) of the growth.
Tables 3, 4 and 5 provide the 50% growth inhibitory concentrations (IC50) in micromoles per liter of the compounds of present invention obtained against the A. baumannii strain ATCC17978.

Row | Compound | IC50 [nM]
1 | CN1C(=O)[C@H](CCCCN)NC(=O)[C@H](CCCN)NCc2ccccc2Sc2c(Cl)cc(-c3ccccc3)cc2CNC(=O)[C@@H]1Cc1c[nH]c2ccccc12 [Example 140, (12S,15S,18S)-15-(4-Amino-butyl)-18-(3-amino-propyl)-4-chloro-12-(1H-indol-3-ylmethyl)-13-methyl-6-phenyl-2-thia-10,13,16,19-tetraaza-tricyclo[19.4.0.0*3,8*]pentacosa-1(25),3,5,7,21,23-hexaene-11,14,17-trione] | 600
2 | CN1C(=O)[C@H](CCCCN)NC(=O)[C@H](CCCN)NCc2ccccc2Sc2c(Cl)cc(-c3ccccc3Cl)cc2CNC(=O)[C@@H]1Cc1c[nH]c2ccccc12 [Example 141, (12S,15S,18S)-15-(4-Amino-butyl)-18-(3-amino-propyl)-4-chloro-6-(2-chloro-phenyl)-12-(1H-indol-3-ylmethyl)-13-methyl-2-thia-10,13,16,19-tetraaza-tricyclo[19.4.0.0*3,8*]pentacosa-1(25),3,5,7,21,23-hexaene-11,14,17-trione] | 1300
3 | CN1C(=O)[C@H](CCCCN)NC(=O)[C@H](CCCN)NCc2ccccc2Sc2c(Cl)cc(-c3cccnc3)cc2CNC(=O)[C@@H]1Cc1c[nH]c2ccccc12 [Example 142, (12S,15S,18S)-15-(4-Amino-butyl)-18-(3-amino-propyl)-4-chloro-12-(1H-indol-3-ylmethyl)-13-methyl-6-pyridin-3-yl-2-thia-10,13,16,19-tetraaza-tricyclo[19.4.0.0*3,8*]pentacosa-1(25),3,5,7,21,23-hexaene-11,14,17-trione] | < 400
4 | CN1C(=O)[C@H](CCCCN)NC(=O)[C@H](CCCN)NCc2ccccc2Sc2c(Cl)cc(-c3ccncc3)cc2CNC(=O)[C@@H]1Cc1c[nH]c2ccccc12 [Example 143, (12S,15S,18S)-15-(4-Amino-butyl)-18-(3-amino-propyl)-4-chloro-12-(1H-indol-3-ylmethyl)-13-methyl-6-pyridin-4-yl-2-thia-10,13,16,19-tetraaza-tricyclo[19.4.0.0*3,8*]pentacosa-1(25),3,5,7,21,23-hexaene-11,14,17-trione] | < 400
5 | CN1C(=O)[C@H](CCCCN)NC(=O)[C@H](CCCN)NCc2ccccc2Sc2c(Cl)cc(Br)cc2CNC(=O)[C@@H]1Cc1c[nH]c2ccccc12 [Example 151, (12S,15S,18S)-15-(4-Amino-butyl)-18-(3-amino-propyl)-6-bromo-4-chloro-12-(1H-indol-3-ylmethyl)-13-methyl-2-thia-10,13,16,19-tetraaza-tricyclo[19.4.0.0*3,8*]pentacosa-1(25),3,5,7,21,23-hexaene-11,14,17-trione] | 200
6 | CN1C(=O)[C@H](CCCCN)NC(=O)[C@H](CCCN)NCc2ccccc2Sc2c(Cl)ncc(Cl)c2CNC(=O)[C@@H]1Cc1c[nH]c2ccccc12 [Example 152] | < 390
7 | CN1C(=O)[C@H](CCCCN)NC(=O)[C@H](CCCN)NCc2ccccc2Sc2cnc(Cl)cc2CNC(=O)[C@@H]1Cc1c[nH]c2ccccc12 [Example 153] | < 390
8 | CN1C(=O)[C@H](CCCCN)NC(=O)[C@H](CCC(N)=O)NCc2ccccc2Sc2c(cc(-c3ccccc3)cc2C(F)(F)F)CNC(=O)[C@@H]1Cc1c[nH]c2ccccc12 [Example 155, 3-[(11S,14S,17S)-14-(4-Amino-butyl)-17-(1H-indol-3-ylmethyl)-16-methyl-12,15,18-trioxo-23-phenyl-25-trifluoromethyl-2-thia-10,13,16,19-tetraaza-tricyclo[19.4.0.0*3,8*]pentacosa-1(25),3,5,7,21,23-hexaen-11-yl]-propionamide] | 2700
9 | CN1C(=O)[C@H](CCCCN)NC(=O)[C@H](CCCN)NCc2ccccc2Sc2c(Cl)cncc2CNC(=O)[C@@H]1Cc1c[nH]c2ccccc12 [Example 158] | < 390
10 | CN1C(=O)[C@H](CCCCN)NC(=O)[C@H](CCCN)NCc2cccnc2Sc2cnc(Cl)cc2CNC(=O)[C@@H]1Cc1c[nH]c2ccccc12 [Example 159, (7S,10S,13S)— 13-((1H-Indol-3-yl)methyl)-10-(4-aminobutyl)-7-(3-aminopropyl)-18-chloro-12-methyl-6,7,9,10,12,13,15,16-octahydrodipyrido[2,3-b:4′,3′-p][1,5,8,11,14]thiatetraazacycloheptadecine-8,11,14(5H)-trione] | < 390
11 | CN1C(=O)[C@H](CCC(N)=O)NC(=O)[C@H](CCCN)NCc2ccccc2Sc2c(cc(-c3ccccc3)cc2C(F)(F)F)CNC(=O)[C@@H]1Cc1c[nH]c2ccccc12 [Example 161, 3-[(11S,14S,17S)-11-(3-Amino-propyl)-17-(1H-indol-3-ylmethyl)-16-methyl-12,15,18-trioxo-23-phenyl-25-trifluoromethyl-2-thia-10,13,16,19-tetraaza-tricyclo[19.4.0.0*3,8*]pentacosa-1(25),3,5,7,21,23-hexaen-14-yl]-propionamide] | 6800
12 | CN1C(=O)[C@H](CCCCN)NC(=O)[C@H](CCCN)NCc2ccccc2Sc2c(ccc(Br)c2Cl)CNC(=O)[C@@H]1Cc1c[nH]c2ccccc12 [Example 168, (12S,15S,18S)-15-(4-Amino-butyl)-18-(3-amino-propyl)-5-bromo-4-chloro-12-(1H-indol-3-ylmethyl)-13-methyl-2-thia-10,13,16,19-tetraaza-tricyclo[19.4.0.0*3,8*]pentacosa-1(25),3,5,7,21,23-hexaene-11,14,17-trione] | < 400
13 | CN1C(=O)[C@H](CCCCN)NC(=O)[C@H](CCCN)NCc2ccccc2Sc2c(ccc(-c3ccccc3)c2Cl)CNC(=O)[C@@H]1Cc1c[nH]c2ccccc12 [Example 176, (12S,15S,18S)-15-(4-Amino-butyl)-18-(3-amino-propyl)-4-chloro-12-(1H-indol-3-ylmethyl)-13-methyl-5-phenyl-2-thia-10,13,16,19-tetraaza-tricyclo[19.4.0.0*3,8*]pentacosa-1(25),3,5,7,21,23-hexaene-11,14,17-trione] | 5100
14 | CN1C(=O)[C@H](CCCCN)NC(=O)[C@H](CCCN)NCc2ccccc2Sc2c(-c3cccnc3)ncc(Cl)c2CNC(=O)[C@@H]1Cc1c[nH]c2ccccc12 [Example 194] | 3300
15 | CN1C(=O)[C@H](CCCCN)NC(=O)[C@H](CCCN)NCc2ccccc2Sc2c(-c3ccncc3)ncc(Cl)c2CNC(=O)[C@@H]1Cc1c[nH]c2ccccc12 [Example 195] | 3000
16 | COc1cc(-c2ncc(Cl)c3c2Sc2ccccc2CN[C@@H](CCCN)C(=O)N[C@@H](CCCCN)C(=O)N(C)[C@@H](Cc2c[nH]c4ccccc24)C(=O)NC3)ccn1 [Example 196] | 100
17 | CN1C(=O)[C@H](CCCCN)NC(=O)[C@H](CCCN)NCc2cccnc2Sc2ccc(Br)nc2CNC(=O)[C@@H]1Cc1c[nH]c2ccccc12 [Example 197, (7S,10S,13S)-13-((1H-Indol-3-yl)methyl)-10-(4-aminobutyl)-7-(3-aminopropyl)-18-bromo-12-methyl-6,7,9,10,12,13,15,16-octahydrodipyrido[2,3-b:2′,3′-p][1,5,8,11,14]thiatetraazacycloheptadecine-8,11,14(5H)-trione] | 200
18 | CN1C(=O)[C@H](CCCCN)NC(=O)[C@H](CCCN)NCc2ccccc2Sc2c(-c3ccnc(C(F)(F)F)c3)ncc(Cl)c2CNC(=O)[C@@H]1Cc1c[nH]c2ccccc12 [Example 198] | 300
19 | CN1C(=O)[C@H](CCCCN)NC(=O)[C@H](CCCN)NCc2ccccc2Sc2c(N3CCOCC3)ncc(Cl)c2CNC(=O)[C@@H]1Cc1c[nH]c2ccccc12 [Example 201] | 400
20 | CN1C(=O)[C@H](CCCCN)NC(=O)[C@H](CCCN)NCc2cc(Br)ccc2Sc2c(Cl)cccc2CNC(=O)[C@@H]1Cc1c[nH]c2ccccc12 [Example 206, (12S,15S,18S)-15-(4-Amino-butyl)-18-(3-amino-propyl)-23-bromo-4-chloro-12-(1H-indol-3-ylmethyl)-13-methyl-2-thia-10,13,16,19-tetraaza-tricyclo[19.4.0.0*3,8*]pentacosa-1(25),3,5,7,21,23-hexaene-11,14,17-trione] | 1400
21 | CN1C(=O)[C@H](CCCCN)NC(=O)[C@H](CCCN)NCc2cc(-c3ccccc3)ccc2Sc2c(Cl)cccc2CNC(=O)[C@@H]1Cc1c[nH]c2ccccc12 [Example 207, (12S,15S,18S)-15-(4-Amino-butyl)-18-(3-amino-propyl)-4-chloro-12-(1H-indol-3-ylmethyl)-13-methyl-23-phenyl-2-thia-10,13,16,19-tetraaza-tricyclo[19.4.0.0*3,8*]pentacosa-1(25),3,5,7,21,23-hexaene-11,14,17-trione] | 9000
22 | CN1C(=O)[C@H](CCCCN)NC(=O)[C@H](CCCN)NCc2cc(-c3cccnc3)ccc2Sc2c(Cl)cccc2CNC(=O)[C@@H]1Cc1c[nH]c2ccccc12 [Example 208, (12S,15S,18S)-15-(4-Amino-butyl)-18-(3-amino-propyl)-4-chloro-12-(1H-indol-3-ylmethyl)-13-methyl-23-pyridin-3-yl-2-thia-10,13,16,19-tetraaza-tricyclo[19.4.0.0*3,8*]pentacosa-1(25),3,5,7,21,23-hexaene-11,14,17-trione] | 12500
23 | Cc1cc(-c2ccc3c(n2)CNC(=O)[C@H](Cc2c[nH]c4ccccc24)N(C)C(=O)[C@H](CCCCN)NC(=O)[C@H](CCCN)NCc2cccnc2S3)ccn1 [Example 215, (7S,10S,13S)-13-((1H-Indol-3-yl)methyl)-10-(4-aminobutyl)-7-(3-aminopropyl)-12-methyl-18-(2-methylpyridin-4-yl)-6,7,9,10,12,13,15,16-octahydrodipyrido[2,3-b:2′,3′-p][1,5,8,11,14]thiatetraazacycloheptadecine-8,11,14(5H)-trione] | 2000
